Reference: PubChem BioAssay AID330 (DTP/NCI, 2004)
Several values for one entry are separate records, joined by “and”; a condition that tells them apart may be missing. Identical values can stand only once. Toxic doses and inconclusive results are not listed.

Tested on: P388 leukemia ip, CD2F1 mice, survival T/C
Test: NCI In Vivo Anticancer Drug Screen. Data for tumor model P388 Leukemia (intraperitoneal) in CD2F1 (CDF1) mice
Settings: endpoint: median survival time, higher = longer survival
In short: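 Mice carrying the transplanted tumor received test compound or vehicle. Survival was recorded in each group, and the value is the treated-group measurement divided by that of the vehicle-treated control group.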

[1] = dose: 100.0 mg/kg/injection, schedule: Q04DX002 (ip), vehicle: Klucel (hydroxypropylcellulose) (HPC)
[2] = dose: 200.0 mg/kg/injection, schedule: Q04DX002 (ip), vehicle: Klucel (hydroxypropylcellulose) (HPC)
[3] = dose: 400.0 mg/kg/injection, schedule: Q04DX002 (ip), vehicle: Klucel (hydroxypropylcellulose) (HPC)
[4] = dose: 50.0 mg/kg/injection, schedule: Q01DX005 (ip), vehicle: saline with Tween-80
[5] = dose: 100.0 mg/kg/injection, schedule: Q01DX005 (ip), vehicle: saline with Tween-80
[6] = dose: 200.0 mg/kg/injection, schedule: Q01DX005 (ip), vehicle: saline with Tween-80
[7] = dose: 50.0 mg/kg/injection, schedule: Q01DX009 (ip), vehicle: saline
[8] = dose: 100.0 mg/kg/injection, schedule: Q01DX009 (ip), vehicle: saline
[9] = dose: 200.0 mg/kg/injection, schedule: Q01DX009 (ip), vehicle: saline

## O=C1CCC2=C1C(c1ccccc1)C1=C(CCC1=O)O2
[1]
  T/C: 100 % of control
[2]
  T/C: 100 % of control
[3]
  T/C: 111 % of control

## C1=CC(Cc2ccccc2)NC1 (stereo unspecified)
dose: 100.0 mg/kg/injection, schedule: Q01DX001 (ip), vehicle: distilled water + alcohol
  T/C: 100 % of control
dose: 200.0 mg/kg/injection, schedule: Q01DX001 (ip), vehicle: distilled water + alcohol
  T/C: 100 % of control

## CC1=CCC2(C)CCC(C(C)C)C2(O)CC1 (stereo unspecified)
dose: 50.0 mg/kg/injection, schedule: Q04DX003 (ip), vehicle: saline
  T/C: 104 % of control
dose: 100.0 mg/kg/injection, schedule: Q04DX003 (ip), vehicle: saline
  T/C: 90 % of control
dose: 200.0 mg/kg/injection, schedule: Q04DX003 (ip), vehicle: saline
  T/C: 100 % of control

## CCOC(=O)c1ccc(-n2c(C)nc3cc(Cl)ccc3c2=O)cc1
dose: 50.0 mg/kg/injection, schedule: Q01DX009 (ip), vehicle: saline with Tween-80
  T/C: 104 % of control
dose: 100.0 mg/kg/injection, schedule: Q01DX009 (ip), vehicle: saline with Tween-80
  T/C: 98 % of control
dose: 200.0 mg/kg/injection, schedule: Q01DX009 (ip), vehicle: saline with Tween-80
  T/C: 98 % of control

## O=C(O)CNC(=O)C1(N2C(=O)c3ccccc3C2=O)CCCC1
[4]
  T/C: 99 % of control
[5]
  T/C: 101 % of control
[6]
  T/C: 97 % of control

## Cc1ccc(S(=O)(=O)OCC(C)(C)CC#N)cc1
dose: 100.0 mg/kg/injection, schedule: Q04DX003 (ip), vehicle: Klucel (hydroxypropylcellulose) (HPC)
  T/C: 96 % of control
dose: 200.0 mg/kg/injection, schedule: Q04DX003 (ip), vehicle: Klucel (hydroxypropylcellulose) (HPC)
  T/C: 96 % of control
dose: 400.0 mg/kg/injection, schedule: Q04DX003 (ip), vehicle: Klucel (hydroxypropylcellulose) (HPC)
  T/C: 100 % of control

## COc1ccc(C(c2cc(C(C)(C)C)cc(C(C)(C)C)c2O)N(C)C)cc1 (stereo unspecified)
dose: 50.0 mg/kg/injection, schedule: Q01DX005 (ip), vehicle: distilled water + alcohol
  T/C: 103 % of control
dose: 100.0 mg/kg/injection, schedule: Q01DX005 (ip), vehicle: distilled water + alcohol
  T/C: 103 % of control
dose: 200.0 mg/kg/injection, schedule: Q01DX005 (ip), vehicle: distilled water + alcohol
  T/C: 105 % of control

## CCOCC(=O)N[C@H]1CCc2cc(OC)c(OC)c(OC)c2-c2ccc(SC)c(=O)cc21
dose: 0.75 mg/kg/injection, schedule: Q01DX009 (ip), vehicle: Klucel (hydroxypropylcellulose) (HPC)
  T/C: 158 % of control and 161 % of control
dose: 1.5 mg/kg/injection, schedule: Q01DX009 (ip), vehicle: Klucel (hydroxypropylcellulose) (HPC)
  T/C: 193 % of control and 229 % of control

## C=C1C(=O)OC2CC(C)C3CC(O)OC(O)C3(C)CC12 (stereo unspecified)
dose: 1.56 mg/kg/injection, schedule: Q01DX009 (ip), vehicle: saline
  T/C: 115 % of control
dose: 3.12 mg/kg/injection, schedule: Q01DX009 (ip), vehicle: saline with Tween-80
  T/C: 102 % of control
dose: 3.13 mg/kg/injection, schedule: Q01DX009 (ip), vehicle: saline
  T/C: 117 % of control
dose: 6.25 mg/kg/injection, schedule: Q01DX009 (ip), vehicle: saline with Tween-80
  T/C: 107 % of control
dose: 12.5 mg/kg/injection, schedule: Q01DX009 (ip), vehicle: saline with Tween-80
  T/C: 99 % of control and 113 % of control

## Nc1cc(=O)nc2cn[nH]n12
[7]
  T/C: 92 % of control
[8]
  T/C: 101 % of control
[9]
  T/C: 90 % of control

## c1cc[c]([Ge]([O][Ge]([c]2ccccc2)[c]2ccccc2)[c]2ccccc2)cc1.c1cc[c]([Ge]([O][Ge]([c]2ccccc2)[c]2ccccc2)[c]2ccccc2)cc1
dose: 50.0 mg/kg/injection, schedule: Q01DX005 (ip), vehicle: Klucel (hydroxypropylcellulose) (HPC)
  T/C: 89 % of control
dose: 100.0 mg/kg/injection, schedule: Q01DX005 (ip), vehicle: Klucel (hydroxypropylcellulose) (HPC)
  T/C: 91 % of control
dose: 200.0 mg/kg/injection, schedule: Q01DX005 (ip), vehicle: Klucel (hydroxypropylcellulose) (HPC)
  T/C: 89 % of control

## CC1=CC(=O)C(O)C2(C)C1CC1OC(=O)C(OC(=O)/C=C(\C)C(C)C)C3C(C)C(O)C4(O)OCC13C42 (stereo unspecified)
dose: 0.25 mg/kg/injection, schedule: Q01DX005 (ip), vehicle: saline + alcohol
  T/C: 113 % of control
dose: 0.5 mg/kg/injection, schedule: Q01DX005 (ip), vehicle: saline + alcohol
  T/C: 121 % of control
dose: 1.0 mg/kg/injection, schedule: Q01DX005 (ip), vehicle: saline + alcohol
  T/C: 121 % of control

## CC1(C)CC2CCCCN2CO1 (stereo unspecified)
dose: 50.0 mg/kg/injection, schedule: Q01DX005 (ip), vehicle: saline
  T/C: 112 % of control
dose: 100.0 mg/kg/injection, schedule: Q01DX005 (ip), vehicle: saline
  T/C: 108 % of control

## O=c1[nH]c2ccccc2cc1CBr
dose: 50.0 mg/kg/injection, schedule: Q04DX002 (ip), vehicle: Klucel (hydroxypropylcellulose) (HPC)
  T/C: 95 % of control
[1]
  T/C: 102 % of control and 104 % of control
[3]
  T/C: 96 % of control

## CC1(C)OC2OC(COC(=O)c3ccccc3)C(OS(C)(=O)=O)C2O1 (stereo unspecified)
[4]
  T/C: 103 % of control
[5]
  T/C: 100 % of control
[6]
  T/C: 102 % of control

## CNC(=O)N(C)C(=O)c1ccncc1C(=O)N(C(=O)NC1CCCCC1)C1CCCCC1
[4]
  T/C: 98 % of control
[5]
  T/C: 89 % of control
[6]
  T/C: 89 % of control

## CCCCC(CN(C)C)C(=O)/C=C/c1ccccc1 (stereo unspecified)
dose: 60.0 mg/kg/injection, schedule: Q01DX005 (ip), vehicle: saline
  T/C: 109 % of control
dose: 120.0 mg/kg/injection, schedule: Q01DX005 (ip), vehicle: saline
  T/C: 123 % of control

## CN(C)C(=O)Nc1cccc(OC(=O)Nc2ccccc2)c1
dose: 25.0 mg/kg/injection, schedule: Q04DX003 (ip), vehicle: saline with Tween-80
  T/C: 101 % of control
dose: 50.0 mg/kg/injection, schedule: Q04DX003 (ip), vehicle: saline with Tween-80
  T/C: 101 % of control
dose: 100.0 mg/kg/injection, schedule: Q04DX003 (ip), vehicle: saline with Tween-80
  T/C: 90 % of control

## O=C(OC1(c2ccc3ccccc3c2)OC(=O)c2ccccc21)c1ccccc1C(=O)c1cccc2ccccc12 (stereo unspecified)
dose: 100.0 mg/kg/injection, schedule: Q01DX001 (ip), vehicle: Klucel (hydroxypropylcellulose) (HPC)
  T/C: 92 % of control
dose: 200.0 mg/kg/injection, schedule: Q01DX001 (ip), vehicle: Klucel (hydroxypropylcellulose) (HPC)
  T/C: 91 % of control
dose: 400.0 mg/kg/injection, schedule: Q01DX001 (ip), vehicle: Klucel (hydroxypropylcellulose) (HPC)
  T/C: 91 % of control

## CCOC(=O)c1c[nH]c2cc3ccccc3cc2c1=O
[7]
  T/C: 91 % of control
[8]
  T/C: 107 % of control
[9]
  T/C: 117 % of control

## CCCCNCCCNCCCNC(=O)c1csc(-c2csc(CCNC(=O)C(NC(=O)C(C)C(O)C(C)NC(=O)C(NC(=O)c3nc(C(CC(N)=O)NCC(N)C(N)=O)nc(N)c3C)C(OC3OC(CO)C(O)C(O)C3OC3OC(CO)C(O)C(OC(N)=O)C3O)c3cnc[nH]3)C(C)O)n2)n1 (stereo unspecified)
dose: 0.62 mg/kg/injection, schedule: Q01DX009 (ip), vehicle: water
  T/C: 104 % of control and 105 % of control
dose: 1.25 mg/kg/injection, schedule: Q01DX009 (ip), vehicle: water
  T/C: 104 % of control and 105 % of control
dose: 2.5 mg/kg/injection, schedule: Q01DX009 (ip), vehicle: water
  T/C: 104 % of control and 110 % of control and 117 % of control
dose: 5.0 mg/kg/injection, schedule: Q01DX009 (ip), vehicle: water
  T/C: 108 % of control and 117 % of control and 120 % of control
dose: 10.0 mg/kg/injection, schedule: Q01DX009 (ip), vehicle: water
  T/C: 104 % of control
dose: 20.0 mg/kg/injection, schedule: Q01DX009 (ip), vehicle: water
  T/C: 105 % of control
dose: 40.0 mg/kg/injection, schedule: Q01DX009 (ip), vehicle: water
  T/C: 89 % of control

## CC1C(c2ccccc2)OC(c2ccccc2)N1C (stereo unspecified)
dose: 12.5 mg/kg/injection, schedule: Q01DX005 (ip), vehicle: water
  T/C: 93 % of control
dose: 25.0 mg/kg/injection, schedule: Q01DX005 (ip), vehicle: water
  T/C: 93 % of control
dose: 50.0 mg/kg/injection, schedule: Q01DX005 (ip), vehicle: water
  T/C: 98 % of control
dose: 100.0 mg/kg/injection, schedule: Q01DX005 (ip), vehicle: water
  T/C: 93 % of control
dose: 200.0 mg/kg/injection, schedule: Q01DX005 (ip), vehicle: water
  T/C: 98 % of control

## Oc1c(Cl)cc(Cl)cc1/C=N\NC(=S)Nc1ccccc1
[1]
  T/C: 97 % of control
[2]
  T/C: 95 % of control

## COc1c(CNC(=O)CCl)cc2[nH]c(C)cc2c1CNC(=O)CCl
dose: 100.0 mg/kg/injection, schedule: Q01DX009 (ip), vehicle: Klucel (hydroxypropylcellulose) (HPC)
  T/C: 153 % of control
dose: 200.0 mg/kg/injection, schedule: Q01DX009 (ip), vehicle: Klucel (hydroxypropylcellulose) (HPC)
  T/C: 150 % of control

## COc1ccc2c(c1)[C@@]13CCCC[C@H]1[C@@H](C2)N(C)CC3(C)O (stereo partly specified)
[1]
  T/C: 97 % of control
[2]
  T/C: 105 % of control
